Source: ChEMBL document CHEMBL3997799, “Synthesis and anti-proliferative activity evaluation of novel benzo[d][1,3] dioxoles-fused 1,4-thiazepines” (Eur J Med Chem, 2017)

Columns and labels:
EC9706 [1] = test: Antiproliferative activity against human EC9706 cells after 48 hrs by MTT assay; assay type: functional, cell-based; conditions: EC9706, 48 h
ECa-109 cell line = test: Antiproliferative activity against human ECA109 cells after 48 hrs by MTT assay; assay type: functional, cell-based; conditions: ECa-109, 48 h
EC9706 [2] = test: Potency index, ratio of 5-fluorouracil IC50 to test compound IC50 for human EC9706 cells; assay type: functional
[3] = Potency index, ratio of 5-fluorouracil IC50 to test compound IC50 for human ECA109 cells; assay type: functional

## O=C1CSC(c2ccc(F)cc2)c2cc3c(cc2N1)OCO3 (stereo not given)
EC9706 [1]
  IC50: 106 µM
ECa-109 cell line
  IC50: > 200 µM

## O=C1CSC(c2ccc(Cl)cc2)c2cc3c(cc2N1)OCO3 (stereo not given)
EC9706 [1]
  IC50: 34.4 µM
ECa-109 cell line
  IC50: 36.2 µM

## Cc1ccc(C2SCC(=O)Nc3cc4c(cc32)OCO4)cc1 (stereo not given)
EC9706 [1]
  IC50: 17.1 µM
ECa-109 cell line
  IC50: 27.7 µM

## O=c1[nH]cc(F)c(=O)[nH]1 [FLUOROURACIL]
EC9706 [1]
  IC50: 23.3 µM
ECa-109 cell line
  IC50: 30.2 µM

## COc1cccc(C2SCC(=O)Nc3cc4c(cc32)OCO4)c1 (stereo not given)
EC9706 [1]
  IC50: 54.6 µM
ECa-109 cell line
  IC50: 49.6 µM

## CC1SC(c2ccc([N+](=O)[O-])cc2)c2cc3c(cc2NC1=O)OCO3 (stereo not given)
EC9706 [1]
  IC50: 34.7 µM
ECa-109 cell line
  IC50: 50.4 µM

## O=C1CSC(c2ccco2)c2cc3c(cc2N1)OCO3 (stereo not given)
EC9706 [1]
  IC50: 30.3 µM
ECa-109 cell line
  IC50: 42 µM

## COc1cc(C2SCC(=O)Nc3cc4c(cc32)OCO4)cc(OC)c1OC (stereo not given)
EC9706 [1]
  IC50: 70.9 µM
ECa-109 cell line
  IC50: 130 µM

## COc1ccc(C2SCC(=O)Nc3cc4c(cc32)OCO4)cc1 (stereo not given)
EC9706 [1]
  IC50: 16.4 µM
ECa-109 cell line
  IC50: 33 µM

## O=C1CSC(c2cccs2)c2cc3c(cc2N1)OCO3 (stereo not given)
EC9706 [1]
  IC50: 69.6 µM
ECa-109 cell line
  IC50: 95.5 µM

## CC1SC(c2ccc(Cl)cc2)c2cc3c(cc2NC1=O)OCO3 (stereo not given)
EC9706 [1]
  IC50: > 200 µM
ECa-109 cell line
  IC50: > 200 µM

## O=C1CSC(c2ccccc2)c2cc3c(cc2N1)OCO3 (stereo not given)
EC9706 [1]
  IC50: 43.2 µM
ECa-109 cell line
  IC50: 38.7 µM

## COc1cc(OC)cc(C2SCC(=O)Nc3cc4c(cc32)OCO4)c1 (stereo not given)
EC9706 [1]
  IC50: 11.7 µM
ECa-109 cell line
  IC50: 30.3 µM

## Cc1ccccc1C1SCC(=O)Nc2cc3c(cc21)OCO3 (stereo not given)
EC9706 [1]
  IC50: 33.5 µM
ECa-109 cell line
  IC50: 55.5 µM

## O=C1CSC(c2ccc([N+](=O)[O-])cc2)c2cc3c(cc2N1)OCO3 (stereo not given)
EC9706 [1]
  IC50: 24.9 µM
ECa-109 cell line
  IC50: 42.3 µM

## Cc1ccc(C2SC(C)C(=O)Nc3cc4c(cc32)OCO4)cc1 (stereo not given)
EC9706 [1]
  IC50: > 200 µM
ECa-109 cell line
  IC50: > 200 µM

## CC1SC(c2cccc([N+](=O)[O-])c2)c2cc3c(cc2NC1=O)OCO3 (stereo not given)
EC9706 [1]
  IC50: 88.4 µM
ECa-109 cell line
  IC50: 106 µM

## COc1ccc(C2SCC(=O)Nc3cc4c(cc32)OCO4)cc1Br (stereo not given)
EC9706 [2]
  Ratio IC50: 2 - 3
[3]
  Ratio IC50: 2 - 3
EC9706 [1]
  IC50: 8.23 µM
ECa-109 cell line
  IC50: 16.2 µM

## O=C1CSC(c2cccc([N+](=O)[O-])c2)c2cc3c(cc2N1)OCO3 (stereo not given)
EC9706 [1]
  IC50: > 200 µM
ECa-109 cell line
  IC50: > 200 µM
